Reference: patent US11306078B2, “Piperidine CXCR7 receptor modulators” (IDORSIA PHARMACEUTICALS LTD., priority 2016, dated 2022)

Biological target: human chemokine receptor CXCR7 (Homo sapiens (Human), UniProt P25106)
Assay: Tango CXCR7-bla U2OS beta-arrestin recruitment assay (beta-lactamase reporter, FRET), antagonism of CXCL12/SDF1-α;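 note: compounds preincubated 15 min before CXCL12 addition, then 22 h at 37 °C, FRET emission ratio read with CCF4-AM substrate after 2 h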
Format: cell-based
Details: antagonistic effect on CXCR7; Tango CXCR7-bla U2OS cells, CXCL12/SDF1-α at its EC80

Sequence of human chemokine receptor CXCR7 (P25106 whole entry): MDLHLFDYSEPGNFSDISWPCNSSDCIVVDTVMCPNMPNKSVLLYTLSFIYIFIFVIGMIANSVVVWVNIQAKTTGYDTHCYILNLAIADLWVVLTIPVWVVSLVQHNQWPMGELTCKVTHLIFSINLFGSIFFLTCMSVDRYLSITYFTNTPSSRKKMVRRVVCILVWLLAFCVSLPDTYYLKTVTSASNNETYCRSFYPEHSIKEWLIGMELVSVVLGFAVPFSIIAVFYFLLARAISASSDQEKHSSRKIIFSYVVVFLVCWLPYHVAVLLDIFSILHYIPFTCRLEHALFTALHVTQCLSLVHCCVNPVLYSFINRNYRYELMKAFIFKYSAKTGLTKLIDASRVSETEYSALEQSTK

Compound	IC50
CN(C)C(=O)[C@@H]1CN(C2CCCCC2)CC[C@H]1NC(=O)c1cc(-c2ccc(F)cc2)on1 (racemic) [Example 3.002, rac-(3R*,4R*)-1-Cyclohexyl-4-{[5-(4-fluoro-phenyl)-isoxazole-3-carbonyl]-amino}-piperidine-3-carboxylic acid dimethylamide]	435 nM
CO[C@@H]1CCCC[C@H]1N1CC[C@@H](NC(=O)c2cc(-c3ccc(F)cc3F)on2)[C@H](C(=O)N(C)C)C1 [Example 2.033]	132 nM
COCC(C)(C)NC(=O)[C@@H]1CN(CC2CC2)CC[C@H]1NC(=O)c1noc(-c2ccc(F)cc2F)n1 (racemic) [Example 1.153, rac-(3R*,4R*)-1-Cyclopropylmethyl-4-{[5-(2,4-difluoro-phenyl)-[1,2,4]oxadiazole-3-carbonyl]-amino}-piperidine-3-carboxylic acid (2-methoxy-1,1-dimethyl-ethyl)-amide]	803 nM
CC(NC(=O)[C@@H]1CN(C2CCCCC2)CC[C@H]1NC(=O)c1cc(-c2ccc(F)cc2F)on1)C(F)F (relative stereo) [Example 1.077, (3R*,4R*)-1-Cyclohexyl-4-{[5-(2,4-difluoro-phenyl)-isoxazole-3-carbonyl]-amino}-piperidine-3-carboxylic acid ((1RS)-2,2-difluoro-1-methyl-ethyl)-amide]	443 nM
C[C@@H](NC(=O)[C@@H]1CN(C2CCCCC2)CC[C@H]1NC(=O)c1cc(-c2c(F)cc(F)cc2F)on1)c1cnccn1 (single isomer, unassigned) [Example 1.129b, (3R*,4R*)-1-Cyclohexyl-4-{[5-(2,4,6-trifluoro-phenyl)-isoxazole-3-carbonyl]-amino}-piperidine-3-carboxylic acid ((R)-1-pyrazin-2-yl-ethyl)-amide]	35 nM
O=C(N[C@H]1CCN(C2CCCC2)C[C@@H]1C(=O)NC1(C2CC2)CC1)c1cc(-c2ccc(F)cc2F)on1 [Example 4.036]	127 nM
CN(C)C(=O)[C@@H]1CN([C@@H]2C[C@@H]3CC[C@@H]2C3)CC[C@H]1NC(=O)c1cc(-c2ccc(F)cc2F)on1 [Example 2.037]	161 nM
C[C@@H](NC(=O)[C@@H]1CN(C2CCCCC2)CC[C@H]1NC(=O)c1cc(-c2ccc(F)cc2F)on1)c1cnccn1 [Example 1.09]	35 nM
O=C(N[C@H]1CCN(C2CCCC2)C[C@@H]1C(=O)NC1(c2ncccn2)CC1)c1ncc(-c2ccc(F)cc2F)o1 [Example 2.098]	94 nM
O=C(N[C@@H]1CCN(C2CCCCC2)C[C@H]1C(=O)NC1(c2ccc(F)cn2)CC1)c1cn(-c2ccc(F)cc2F)nn1 (racemic) [Example 1.142, rac-(3R*,4R*)-1-Cyclohexyl-4-{[1-(2,4-difluoro-phenyl)-1H-[1,2,3]triazole-4-carbonyl]-amino}-piperidine-3-carboxylic acid [1-(5-fluoro-pyridin-2-yl)-cyclopropyl]-amide]	472 nM
CCN1CC[C@H](NC(=O)c2cc(-c3ccc(F)cc3F)on2)[C@@H](C(=O)N[C@H](C)c2cccc(C)n2)C1 [Example 4.095]	57 nM
COCCC(C)(C)NC(=O)[C@H]1CN(C2CCCCC2)CC[C@@H]1NC(=O)c1cc(-c2ccc(F)cc2F)on1 [Example 4.003]	333 nM
CC1(NC(=O)[C@@H]2CN(C3CCCCC3)CC[C@H]2NC(=O)c2cc(-c3ccc(F)cc3F)on2)CC(F)(F)C1 (relative stereo) [Example 1.087, rac-(3R*,4R*)-1-Cyclohexyl-4-{[5-(2,4-difluoro-phenyl)-isoxazole-3-carbonyl]-amino}-piperidine-3-carboxylic acid (3,3-difluoro-1-methyl-cyclobutyl)-amide]	943 nM
O=C(N[C@H]1CCN(CC2CC2)C[C@@H]1C(=O)NC1(C2CC2)CC1)c1cc(-c2ccc(F)cc2F)on1 [Example 4.045]	164 nM
COCC(C)(C)NC(=O)[C@@H]1CN(C2CCCC2)CC[C@H]1NC(=O)c1cc(-c2c(F)cc(F)cc2F)on1 (racemic) [Example 1.112, rac-(3R*,4R*)-1-Cyclopentyl-4-{[5-(2,4,6-trifluoro-phenyl)-isoxazole-3-carbonyl]-amino}-piperidine-3-carboxylic acid (2-methoxy-1,1-dimethyl-ethyl)-amide]	227 nM
Cc1cc(C)nc(C2(NC(=O)[C@H]3CN(C4CCCC4)CC[C@@H]3NC(=O)c3cc(-c4ccc(F)cc4F)on3)CC2)n1 [Example 1.184, (3S,4S)-1-Cyclopentyl-4-{[5-(2,4-difluoro-phenyl)-isoxazole-3-carbonyl]-amino}-piperidine-3-carboxylic acid [1-(4,6-dimethyl-pyrimidin-2-yl)-cyclopropyl]-amide]	3 nM
CN(C)C(=O)[C@@H]1CN(CC2CCCC2)CC[C@H]1NC(=O)c1cc(-c2ccc(F)cc2F)on1 [Example 2.03]	74 nM
O=C(N[C@@H]1CCN(CC2CC2)C[C@H]1C(=O)N1CC[C@@H]1c1ncccn1)c1cc(-c2ccc(F)cc2F)on1 [Example 4.079b]	18 nM
Cc1ccccc1C1(NC(=O)[C@H]2CN(C3CCC3)CC[C@@H]2NC(=O)c2cc(-c3ccc(F)cc3F)on2)CC1 [Example 4.088]	138 nM
C[C@@H](NC(=O)[C@@H]1CN(C2CCCC2)CC[C@H]1NC(=O)c1cc(-c2ccc(F)cc2F)no1)C1CCC1 (relative stereo) [Example 1.141, (3R*,4R*)-1-Cyclopentyl-4-{[3-(2,4-difluoro-phenyl)-isoxazole-5-carbonyl]-amino}-piperidine-3-carboxylic acid ((R)-1-cyclobutyl-ethyl)-amide]	379 nM
N#CCN1CC[C@H](NC(=O)c2cc(-c3ccc(F)cc3F)on2)[C@@H](C(=O)NC2(c3ncccn3)CC2)C1 [Example 4.051]	356 nM
Cn1ccc(CNC(=O)[C@@H]2CN(C3CCCCC3)CC[C@H]2NC(=O)c2cc(-c3ccc(F)cc3F)on2)n1 (racemic) [Example 1.042, rac-(3R*,4R*)-1-Cyclohexyl-4-{[5-(2,4-difluoro-phenyl)-isoxazole-3-carbonyl]-amino}-piperidine-3-carboxylic acid (1-methyl-1H-pyrazol-3-ylmetyl)-amide]	532 nM
Cc1cccnc1C(C)(C)CNC(=O)[C@@H]1CN(C2CCC2)CC[C@H]1NC(=O)c1cc(-c2ccc(F)cc2F)on1 [Example 4.086]	472 nM
O=C(N[C@@H]1CCN(CC2CC2)C[C@H]1C(=O)NC1(c2ccc(F)cn2)CC1)c1cc(-c2c(F)cc(F)cc2F)on1 (racemic) [Example 1.144, rac-(3R*,4R*)-1-Cyclopropylmethyl-4-{[5-(2,4,6-trifluoro-phenyl)-isoxazole-3-carbonyl]-amino}-piperidine-3-carboxylic acid [1-(5-fluoro-pyridin-2-yl)-cyclopropyl]-amide]	178 nM
O=C(N[C@H]1CCN(C2CCC2)C[C@@H]1C(=O)NC1(c2cccc(Cl)c2)COC1)c1cc(-c2ccc(F)cc2F)on1 [Example 4.097]	80 nM
CCOC(=O)[C@H](NC(=O)[C@H]1CN(CC2CC2)CCC1NC(=O)c1cc(-c2ccc(F)cc2F)on1)c1ccccc1 (stereo partly drawn) [Example 4.073]	173 nM
O=C(N[C@H]1CCN(C2CCCC2)C[C@@H]1C(=O)NC1(c2cccnn2)CC1)c1cc(-c2ccc(F)cc2F)on1 [Example 1.182, (3S,4S)-1-Cyclopentyl-4-{[5-(2,4-difluoro-phenyl)-isoxazole-3-carbonyl]-amino}-piperidine-3-carboxylic acid (1-pyridazin-3-yl-cyclopropyl)-amide]	218 nM
